Patent publication US5518735A, “Meta-substituted phenylalanine derivatives” (priority 1990, dated 1996)
Where a name gives a salt, the structure may show the parent alone. Read-outs that look alike come from different tables or passages of the source.

Legend:
[1] = biological target: T1, factor XIIa (Homo sapiens, UniProt P00748); test: Inhibition of factor XIIa (Ki); type: biochemical; details: Table 26
T1 construct: glandular kallikrein, factor XIIa and plasma kallikrein
T1 sequence (P00748 373-615 limits assumed): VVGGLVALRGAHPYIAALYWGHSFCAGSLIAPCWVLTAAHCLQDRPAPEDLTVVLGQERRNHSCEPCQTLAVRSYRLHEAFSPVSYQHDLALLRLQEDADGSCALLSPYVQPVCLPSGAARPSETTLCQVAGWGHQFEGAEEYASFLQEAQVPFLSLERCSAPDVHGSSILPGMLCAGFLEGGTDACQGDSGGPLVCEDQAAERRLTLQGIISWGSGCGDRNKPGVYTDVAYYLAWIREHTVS

[2] = biological target: thrombin (Bos taurus, UniProt P00735); test: Inhibition of thrombin (dissociation constant Ki); type: biochemical
[3] = biological target: T2, plasmin (Homo sapiens, UniProt P00747); test: Inhibition of plasmin (Ki); type: biochemical; details: Table 26
T2 construct: trypsin and the related enzymes thrombin, plasmin, factor Xa, tPA

[4] = biological target: T3, plasma kallikrein (Homo sapiens, UniProt P03952); test: Inhibition of plasma kallikrein (Ki); type: biochemical; details: Table 26
T3 construct: glandular kallikrein, factor XIIa and plasma kallikrein

[5] = biological target: factor Xa (Bos taurus, UniProt P00743); test: Inhibition of factor Xa (dissociation constant Ki); type: biochemical
[6] = biological target: glandular kallikrein (Sus scrofa, UniProt P00752); test: Inhibition of glandular kallikrein (Ki); type: biochemical; details: Table 26; read-out: Ki, Gland. Kallikrein
[7] = biological target: tPA (Homo sapiens, UniProt P00750); test: Inhibition of tPA (Ki); type: biochemical; details: Table 26
[8] = Plasma concentration in rats after subcutaneous administration (HPLC); details: rat
Procedure: (§1) For the pharmacokinetic characterization, the plasma concentration of selected derivatives was determined in rats after intravenous (i.v.), subcutaneous (s.c.) and peroral (p.o.) application according to the following three-step procedure:
(§2) 1. A physiological NaCl solution of the substance to be tested was submitted to high pressure liquid chromatography (HPLC) in order to determine its characteristic substance-specific retention time with the chosen test conditions.
(§3) 2. The substance to be tested was diluted in vitro in rat plasma. This solution was also submitted to HPLC to see whether the characteristic peak of the substance once again appeared at the substance-specific retention time.
(§4) 3. […] Blood samples were taken at time intervals of 15 minutes, from which plasma samples were prepared by centrifugation; those samples were also submitted to HPLC to see whether the characteristic peak of the substance appeared again at the substance-specific retention time.

[9] = Plasma concentration in rats after intravenous administration (HPLC); details: for pharmacokinetic properties: in words, compared with NAPAP
Procedure: as §1, §2, §3, §4

[10] = Plasma concentration in rats after oral administration (HPLC); details: rat
Procedure: as §1, §2, §3, §4

[11] = in vivo; details: mouse
[12] = Tables 19-25, read-out: Ki, Factor Xa

T3 sequence (P03952 391-638 limits assumed, species assumed): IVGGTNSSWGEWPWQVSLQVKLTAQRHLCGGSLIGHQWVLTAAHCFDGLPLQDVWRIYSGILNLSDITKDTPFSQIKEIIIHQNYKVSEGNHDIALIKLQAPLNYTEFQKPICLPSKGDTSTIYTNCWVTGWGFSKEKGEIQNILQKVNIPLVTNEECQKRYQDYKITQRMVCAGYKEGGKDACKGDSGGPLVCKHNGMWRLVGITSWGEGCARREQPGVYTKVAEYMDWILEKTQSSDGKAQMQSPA
T3 sequence (P03952 20-390 partner limits assumed, species assumed): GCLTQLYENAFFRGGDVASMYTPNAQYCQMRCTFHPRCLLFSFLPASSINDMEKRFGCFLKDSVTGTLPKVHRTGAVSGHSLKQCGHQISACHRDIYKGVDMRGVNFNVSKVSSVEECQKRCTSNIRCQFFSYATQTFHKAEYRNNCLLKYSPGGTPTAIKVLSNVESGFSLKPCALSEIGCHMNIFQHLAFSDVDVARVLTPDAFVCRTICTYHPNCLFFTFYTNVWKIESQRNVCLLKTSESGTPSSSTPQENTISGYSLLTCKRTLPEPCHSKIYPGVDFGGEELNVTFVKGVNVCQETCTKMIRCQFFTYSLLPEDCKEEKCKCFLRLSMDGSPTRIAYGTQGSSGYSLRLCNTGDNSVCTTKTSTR
Sequence of factor Xa (P00743 234-492 limits assumed): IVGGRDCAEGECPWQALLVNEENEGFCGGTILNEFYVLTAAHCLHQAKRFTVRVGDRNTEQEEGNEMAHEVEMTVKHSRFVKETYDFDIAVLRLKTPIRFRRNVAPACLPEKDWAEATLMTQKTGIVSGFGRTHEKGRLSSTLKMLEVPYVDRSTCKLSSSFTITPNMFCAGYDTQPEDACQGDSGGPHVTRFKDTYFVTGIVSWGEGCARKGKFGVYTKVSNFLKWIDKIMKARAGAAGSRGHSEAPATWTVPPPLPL
Sequence of factor Xa (P00743 41-180 partner limits assumed): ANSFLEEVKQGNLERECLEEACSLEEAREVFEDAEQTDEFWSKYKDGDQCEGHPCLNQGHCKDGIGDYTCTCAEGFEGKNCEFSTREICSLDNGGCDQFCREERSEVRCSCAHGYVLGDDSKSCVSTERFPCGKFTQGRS
Sequence of glandular kallikrein (P00752 8-246): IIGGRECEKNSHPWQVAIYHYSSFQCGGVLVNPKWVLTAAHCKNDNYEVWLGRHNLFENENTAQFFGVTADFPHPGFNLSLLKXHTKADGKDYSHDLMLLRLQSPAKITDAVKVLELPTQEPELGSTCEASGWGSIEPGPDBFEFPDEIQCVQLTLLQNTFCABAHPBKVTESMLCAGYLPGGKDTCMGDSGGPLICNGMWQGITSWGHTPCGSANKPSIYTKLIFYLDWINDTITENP
Sequence of tPA (P00750 36-562): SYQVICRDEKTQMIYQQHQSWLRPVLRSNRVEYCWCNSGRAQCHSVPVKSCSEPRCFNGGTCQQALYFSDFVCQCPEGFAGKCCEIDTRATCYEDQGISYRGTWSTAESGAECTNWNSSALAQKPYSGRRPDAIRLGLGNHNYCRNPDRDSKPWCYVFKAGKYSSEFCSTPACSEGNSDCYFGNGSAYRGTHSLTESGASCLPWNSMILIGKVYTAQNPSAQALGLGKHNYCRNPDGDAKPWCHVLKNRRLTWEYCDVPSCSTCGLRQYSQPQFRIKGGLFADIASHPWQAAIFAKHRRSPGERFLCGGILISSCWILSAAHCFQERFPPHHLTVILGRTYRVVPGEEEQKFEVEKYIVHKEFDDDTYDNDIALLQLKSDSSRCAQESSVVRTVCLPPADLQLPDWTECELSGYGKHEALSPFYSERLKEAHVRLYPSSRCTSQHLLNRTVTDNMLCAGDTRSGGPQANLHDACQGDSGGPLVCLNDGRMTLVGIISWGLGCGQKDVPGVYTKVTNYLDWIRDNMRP
T2 sequence (P00747 581-810 limits assumed): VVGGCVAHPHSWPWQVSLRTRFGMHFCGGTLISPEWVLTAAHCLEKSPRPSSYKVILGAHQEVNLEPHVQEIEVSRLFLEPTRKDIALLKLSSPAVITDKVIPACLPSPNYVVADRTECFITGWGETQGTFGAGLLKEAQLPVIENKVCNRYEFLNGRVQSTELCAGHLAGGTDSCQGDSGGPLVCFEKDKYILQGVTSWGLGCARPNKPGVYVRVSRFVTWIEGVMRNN
T2 sequence (P00747 97-580 partner limits assumed): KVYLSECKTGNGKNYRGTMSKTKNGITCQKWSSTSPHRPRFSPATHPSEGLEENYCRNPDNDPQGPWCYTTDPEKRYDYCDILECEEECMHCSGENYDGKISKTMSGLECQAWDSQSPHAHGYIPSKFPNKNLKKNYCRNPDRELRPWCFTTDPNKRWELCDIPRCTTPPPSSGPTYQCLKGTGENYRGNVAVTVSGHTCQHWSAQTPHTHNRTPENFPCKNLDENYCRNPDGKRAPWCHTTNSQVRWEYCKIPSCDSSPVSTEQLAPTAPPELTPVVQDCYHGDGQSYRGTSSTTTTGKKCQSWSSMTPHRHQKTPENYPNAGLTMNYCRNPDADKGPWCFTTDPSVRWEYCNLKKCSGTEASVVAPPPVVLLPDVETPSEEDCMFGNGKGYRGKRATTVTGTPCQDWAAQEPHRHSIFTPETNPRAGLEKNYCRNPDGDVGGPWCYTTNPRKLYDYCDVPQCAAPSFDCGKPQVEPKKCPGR

COC(=O)C(Cc1cccc(C(=N)N)c1)NS(=O)(=O)c1ccc2ccccc2c1 (racemic) [Compound 7]
Ki [1]: 190 µM
Ki [2]: 0.28 µM
Ki [3]: 5.2 µM
Ki [4]: 18 µM
Ki [5, 12]: 2.5 µM
Ki [6]: 210 µM
Ki [7]: 120 µM

CC1CCCCN1C(=O)C(Cc1cccc(C(=N)N)c1)NS(=O)(=O)c1ccc2ccccc2c1 (racemic) [Compound 32]
Ki [2]: 0.13 µM
Ki [5, 12]: 74 µM

CN1CCN(C(=O)C(Cc2cccc(C(=N)N)c2)NS(=O)(=O)c2ccc3ccccc3c2)CC1 (racemic) [Compound 35]
Ki [1]: > 1000 µM
Ki [3]: 31 µM
Ki [4]: 85 µM
Ki [5]: 30 µM
Ki [6]: > 1000 µM
Ki [7]: 430 µM

N=C(N)c1cccc(CC(NS(=O)(=O)c2ccc3ccccc3c2)C(=O)N2CCC(C(=O)O)CC2)c1 (racemic) [Compound 85]
concentration at 0.25 h ([8]; plasma, sc, 5 mg/kg): 1330 ng/mL
concentration at 0.5 h ([8]; plasma, sc, 5 mg/kg): 1030 ng/mL
concentration at 0.75 h ([8]; plasma, sc, 5 mg/kg): 860 ng/mL
concentration at 1 h ([8]; plasma, sc, 5 mg/kg): 834 ng/mL
concentration at 1.5 h ([8]; plasma, sc, 5 mg/kg): 913 ng/mL
concentration at 2 h ([8]; plasma, sc, 5 mg/kg): 977 ng/mL
concentration at 3 h ([8]; plasma, sc, 5 mg/kg): 815 ng/mL
concentration at 4 h ([8]; plasma, sc, 5 mg/kg): 676 ng/mL
concentration at 5 h ([8]; plasma, sc, 5 mg/kg): 550 ng/mL
concentration at 2 min ([9]; rat, plasma, iv, 1 mg/kg): 2350 ng/mL
concentration at 5 min ([9]; rat, plasma, iv, 1 mg/kg): 1240 ng/mL
concentration at 10 min ([9]; rat, plasma, iv, 1 mg/kg): 526 ng/mL
concentration at 0.25 h ([9]; rat, plasma, iv, 1 mg/kg): 334 ng/mL
concentration at 0.5 h ([9]; rat, plasma, iv, 1 mg/kg): 240 ng/mL
concentration at 0.75 h ([9]; rat, plasma, iv, 1 mg/kg): 176 ng/mL
concentration at 1 h ([9]; rat, plasma, iv, 1 mg/kg): 99 ng/mL
concentration at 1.5 h ([9]; rat, plasma, iv, 1 mg/kg): 52 ng/mL
concentration at 2 h ([9]; rat, plasma, iv, 1 mg/kg): 28 ng/mL
concentration at 4 h ([9]; rat, plasma, iv, 1 mg/kg): 14 ng/mL
Concentration in plasma ([10]; oral 100 mg/kg, 240 min): 0 ng/mL
concentration at 0.25 h ([10]; plasma, po, 100 mg/kg): 870 ng/mL
concentration at 0.5 h ([10]; plasma, po, 100 mg/kg): 541 ng/mL
concentration at 0.75 h ([10]; plasma, po, 100 mg/kg): 345 ng/mL
concentration at 1 h ([10]; plasma, po, 100 mg/kg): 120 ng/mL
concentration at 2 h ([10]; plasma, po, 100 mg/kg): 103 ng/mL
concentration at 3 h ([10]; plasma, po, 100 mg/kg): 104 ng/mL
LD50 at 168 h ([11]; iv): 43 mg/kg
LD50 at 168 h ([11]; po): > 3000 mg/kg

COC(=O)C1CCCCN1C(=O)C(Cc1cccc(C(=N)N)c1)NS(=O)(=O)c1ccc2ccccc2c1 (racemic) [Compound 94]
Ki [1]: 500 µM
Ki [2]: 0.07 µM
Ki [3]: 10.5 µM
Ki [4]: 35 µM
Ki [5, 12]: 46 µM
Ki [6]: > 1000 µM
Ki [7]: 220 µM

N=C(N)c1cccc(CC(NS(=O)(=O)c2ccc3ccccc3c2)C(=O)N2CCCCC2C(=O)NCC(=O)O)c1 (racemic) [Compound 116, N-α-(2-Naphthylsulfonyl)-3-amidino-(D,L)-phenylalanyl-(D,L)-pipecolyl-glycine hydrochloride]
Ki [2]: 1.3 µM
Ki [5, 12]: 110 µM

COC(=O)CNC(=O)C1CCCCN1C(=O)C(Cc1cccc(C(=N)N)c1)NS(=O)(=O)c1ccc2ccccc2c1 (racemic) [Compound 117, N-α-(2-Naphthylsulfonyl-3-amidino-(D,L)-phenylalanyl-(D,L)-pipecolyl-glycine-methyl ester hydrochloride]
Ki [2]: 0.88 µM
Ki [5, 12]: 38 µM

N=C(N)c1cccc(CC(NS(=O)(=O)c2ccc3ccccc3c2)C(=O)N2CC3CCCCC3CC2C(=O)O)c1 (racemic) [Compound 151, N-α-(2-Naphthylsulfonyl)-3-amidino-(D,L)-phenylalanyl-decahydroisoquinoline-3-carboxylic acid hydrochloride]
Ki [2]: 0.12 µM
Ki [5, 12]: 54 µM

N=C(N)c1cccc(CC(NC(=O)CNS(=O)(=O)c2ccc3ccccc3c2)C(=O)N2CCCCC2C(=O)O)c1 (racemic) [Compound 165]
Ki [2]: 61 µM
Ki [5, 12]: 48 µM

N=C(N)c1cccc(CC(NC(=O)CNS(=O)(=O)c2ccc3ccccc3c2)C(=O)N2CCC(C(=O)O)CC2)c1 (racemic) [Compound 166]
Ki [2]: 46 µM
Ki [5, 12]: 97 µM

CC1CCN(C(=O)C(Cc2cccc(C(=N)N)c2)NS(=O)(=O)c2cccc3cccnc23)CC1 (racemic) [Compound 171, N-α-(8-quinolinesulfonyl)-3-amidino-(D,L)-phenylalanine-4-methylpiperidide hydroiodide]
Ki [1]: 780 µM
Ki [2]: 0.34 µM
Ki [3]: 100 µM
Ki [4]: > 1000 µM
Ki [5, 12]: 180 µM
Ki [6]: 260 µM
Ki [7]: > 1000 µM

N=C(N)c1cccc(CC(NS(=O)(=O)c2cccc3cccnc23)C(=O)N2CCCCC2C(=O)O)c1 (racemic) [Compound 180]
Ki [2]: 16 µM
Ki [5, 12]: 380 µM

N=C(N)c1cccc(CC(NS(=O)(=O)c2cccc3cccnc23)C(=O)N2CCC(C(=O)O)CC2)c1 (racemic) [Compound 181]
Ki [2]: 127 µM
Ki [5, 12]: 260 µM

NCc1cccc(CC(NS(=O)(=O)c2ccc3ccccc3c2)C(=O)N2CCCCC2C(=O)O)c1 (racemic) [Compound 185, N-α-(2-Naphthylsulfonyl)-3-aminomethyl-(D,L)-phenylalanyl-(D,L)-pipecolic acid]
Ki [2]: 50 µM
Ki [5, 12]: 140 µM

NCc1cccc(CC(NS(=O)(=O)c2ccc3ccccc3c2)C(=O)N2CCC(C(=O)O)CC2)c1 (racemic) [Compound 186]
concentration at 0.25 h ([8]; plasma, sc, 5 mg/kg): 251 ng/mL
concentration at 0.5 h ([8]; plasma, sc, 5 mg/kg): 368 ng/mL
concentration at 0.75 h ([8]; plasma, sc, 5 mg/kg): 444 ng/mL
concentration at 1 h ([8]; plasma, sc, 5 mg/kg): 558 ng/mL
concentration at 1.5 h ([8]; plasma, sc, 5 mg/kg): 629 ng/mL
concentration at 2 h ([8]; plasma, sc, 5 mg/kg): 534 ng/mL
concentration at 3 h ([8]; plasma, sc, 5 mg/kg): 533 ng/mL
concentration at 4 h ([8]; plasma, sc, 5 mg/kg): 669 ng/mL
concentration at 5 h ([8]; plasma, sc, 5 mg/kg): 455 ng/mL
concentration at 6 h ([8]; plasma, sc, 5 mg/kg): 340 ng/mL
Ki [2]: 0.5 µM
pharmacokinetic properties [9]: improved pharmacokinetic properties
concentration at 2 min ([9]; rat, plasma, iv, 1 mg/kg): 1840 ng/mL
concentration at 5 min ([9]; rat, plasma, iv, 1 mg/kg): 1260 ng/mL
concentration at 10 min ([9]; rat, plasma, iv, 1 mg/kg): 653 ng/mL
concentration at 0.25 h ([9]; rat, plasma, iv, 1 mg/kg): 426 ng/mL
concentration at 0.5 h ([9]; rat, plasma, iv, 1 mg/kg): 225 ng/mL
concentration at 0.75 h ([9]; rat, plasma, iv, 1 mg/kg): 205 ng/mL
concentration at 1 h ([9]; rat, plasma, iv, 1 mg/kg): 193 ng/mL
concentration at 1.5 h ([9]; rat, plasma, iv, 1 mg/kg): 53 ng/mL
concentration at 2 h ([9]; rat, plasma, iv, 1 mg/kg): 228 ng/mL
Ki [5, 12]: 230 µM
concentration at 0.25 h ([10]; plasma, po, 100 mg/kg): 996 ng/mL
concentration at 0.5 h ([10]; plasma, po, 100 mg/kg): 800 ng/mL
concentration at 0.75 h ([10]; plasma, po, 100 mg/kg): 769 ng/mL
concentration at 1 h ([10]; plasma, po, 100 mg/kg): 1250 ng/mL
concentration at 1.5 h ([10]; plasma, po, 100 mg/kg): 877 ng/mL
concentration at 2 h ([10]; plasma, po, 100 mg/kg): 619 ng/mL
concentration at 3 h ([10]; plasma, po, 100 mg/kg): 357 ng/mL
concentration at 4 h ([10]; plasma, po, 100 mg/kg): 328 ng/mL
concentration at 5 h ([10]; plasma, po, 100 mg/kg): 370 ng/mL
concentration at 6 h ([10]; plasma, po, 100 mg/kg): 326 ng/mL
LD50 at 168 h ([11]; iv): 100 mg/kg
LD50 at 168 h ([11]; po): > 3000 mg/kg

CC1CCN(C(=O)C(Cc2cccc(C(=N)NO)c2)NS(=O)(=O)c2ccc3ccccc3c2)CC1 (racemic) [Compound 187, N-α-(2-Naphthylsulfonyl)-3-oxamidino-(D,L)-phenylalanine-4-methylpiperidide hydroiodide]
Ki [2]: 2.8 µM
Ki [5, 12]: > 1000 µM

N=C(NO)c1cccc(CC(NS(=O)(=O)c2ccc3ccccc3c2)C(=O)N2CCCCC2C(=O)O)c1 (racemic) [Compound 188, N-α-(2-Naphthylsulfonyl)-3-oxamidino-(D,L)-phenylalanyl-(D,L)-pipecolic acid hydroiodide]
Ki [2]: 330 µM
Ki [5, 12]: 410 µM

N=C(NO)c1cccc(CC(NS(=O)(=O)c2ccc3ccccc3c2)C(=O)N2CCC(C(=O)O)CC2)c1 (racemic) [Compound 189, N-α-(2-Naphthylsulfonyl)-3-oxamidino-(D,L)-phenylalanyl-isonipecotic acid hydroiodide]
Ki [2]: 270 µM
Ki [5, 12]: 670 µM

Nc1cccc(CC(NS(=O)(=O)c2ccc3ccccc3c2)C(=O)N2CCCCC2C(=O)O)c1 (racemic) [Compound 204]
Ki [2]: 130 µM
Ki [5, 12]: 450 µM

Nc1cccc(CC(NS(=O)(=O)c2ccc3ccccc3c2)C(=O)N2CCC(C(=O)O)CC2)c1 (racemic) [Compound 205]
Ki [2]: 720 µM
Ki [5, 12]: 720 µM

N=C(N)Nc1cccc(CC(NS(=O)(=O)c2ccc3ccccc3c2)C(=O)N2CCCCC2C(=O)O)c1 (racemic) [Compound 208, N-α-(2-Naphthylsulfonyl)-3-guanidino-(D,L)-phenylalanine-(D,L)-pipecolic acid hydrochloride]
Ki [2]: 29 µM
Ki [5, 12]: 82 µM
LD50 at 168 h ([11]; iv): > 50 mg/kg
LD50 at 168 h ([11]; po): > 1000 mg/kg

N=C(N)c1cccc(C[C@H](NS(=O)(=O)c2ccc3ccccc3c2)C(=O)N2CCC[C@H]2C(=O)O)c1 [Nα-2-naphthylsulfonyl-3-amidinophenylalanyl proline]
blood level after subcutaneous administration ([8]; s.c.): a relatively high blood level is reached which is maintained in an anticoagulantly effective concentration for a prolonged period of time
inhibition of thrombin ([2]; in words): surprisingly inhibits thrombin
pharmacokinetic properties [9]: excellent pharmacokinetic properties
inhibition of factor Xa ([5]; in words): does not selectively inhibit factor Xa
detection / concentration in plasma or absorption after oral administration ([10]; oral): absorbed by the intestine

COC(=O)[C@H](Cc1cccc(C(=N)N)c1)NC(=O)CNS(=O)(=O)c1ccc(C)cc1 [TAPAM, Nα-tosylglycyl-3-amidinophenylalanine methyl ester, reference compound]
Ki [1]: 180 µM
Ki [3]: 160 µM
Ki [4]: 15 µM
Ki [6]: 890 µM
LD50 at 168 h ([11]; iv): 103 mg/kg
LD50 at 168 h ([11]; po): > 1000 mg/kg
Ki [7]: 27 µM
